Measured values from patent US11591326B2, “Inhibitors of protein arginine methyltransferase 5 (PRMT5), pharmaceutical products thereof, and methods thereof” (PHARMABLOCK SCIENCES (NANJING), INC., priority 2018, dated 2023).

Tests used:
[1] = biological target: Human recombinant PRMT5 in complex with human recombinant MEP50 (Homo sapiens (Human), UniProt O14744); assay: PRMT5/MEP50 AlphaLISA enzyme inhibitory assay; assay type: biochemical; conditions: PRMT5/MEP50 25 nM, SAM 10 μM, Biotin-H4 peptide 30 nM
Procedure, shortened: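 Insect-cell-expressed PRMT5/MEP50 (25 nM) preincubated with SAM (10 μM), then 15 min with compound in pH 8.5 Tris buffer, 1% DMSO. Biotin-H4(1–21) peptide (30 nM) reaction ran 120 min at room temperature. H4R3 methylation detected by AlphaLISA; IC50 from four-parameter sigmoidal fit.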

[2] = test system: Mantle Cell Lymphoma Z-138 cell; assay: Cell proliferation inhibition, Z-138 (CCK8); assay type: cell-based; conditions: Homo sapiens, Z-138, 96 h, Z-138, incubated 4 days
Source text: (§1) Materials and Cell Lines: Z-138, U251, and MIA PaCa2 cells were purchased from ATCC (American Type Culture Collection, Manassas, Va.) and Chinese Academy of Science (Shanghai, China). Iscove's Modified Dulbecco's Medium (IMDM), Dulbecco's Modified Eagle Medium (DMEM), penicillin-streptomycin, heat inactivated fetal bovine serum (FBS), and horse serum was purchased from ThermoFisher, Waltham, Mass., USA. Corning 96- and 384-well cell culture plates were purchased from ThermoFisher, Waltham, Mass., USA. Cell-Titer Glo® was purchased from Promega Corporation, Madison, Wis., USA.
In order to evaluate the inhibitory ability of compounds synthesized on the proliferation of the Mantle Cell Lymphoma Z-138 cell, exponentially growing cells were seeded in the media of IMDM with 10% horse serum and 1% penicillin-streptomycin at a concentration of 30000 cells/ml in a 96-well plate with 100 ul per well and incubated overnight at 37° C., 5% CO2 incubator. Compounds were prepared as 10-point, 3-fold serial dilutions in DMSO, beginning at 6 mM. 1 μl of DMSO solutions from the compound stock plates were added to 99 ul of cell culture media (final top concentration of compound in the assay was 30 uM and the final concentration of DMSO was 0.5%). 100 μL of compound solutions in media were added to each well of Z-138 cell plates. After adding compound solutions, assay plates were incubated for 4 days at 37° C., 5% CO2. Cell viability was measured using the Cell Counting Kit-8 (CCK8) obtained from the Beyotime Biotehnology, Shanghai, China. 20 ul of CCK8 reagent was added to each well of the Z-138 assay plate which was incubated at 37° C. for 2 hours. O.D. at 450 nm was read with the FlexStation 3 microplate reader (Molecular Devices, Sunnyvale, Calif. 94089 USA). The concentrations of compounds inhibiting cell viability by 50% (IC50 values) were determined using a sigmoidal dose-response model (variable slopes, four parameters) in Prism 7 (La Jolla, Calif.).

Glioblastoma U-251 cell = assay: Cell proliferation inhibition, U-251 (CellTiter-Glo); assay type: cell-based; conditions: Homo sapiens, U-251, incubated for 12 days (read after 8 or 12 days)
Source text: as §1
In order to evaluate the inhibitory ability of compounds synthesized on the proliferation of the Glioblastoma U-251 cell, exponentially growing cells were seeded in the cell culture media of DMEM with 10% FBS and 1% penicillin-streptomycin at a concentration of 10000 cells/ml in a 384-well plate with 20 ul per well and incubated overnight at 37° C., 5% CO2 incubator. Compounds were prepared as 10-point, 3-fold serial dilutions in DMSO, beginning at 6 mM. 1 μl of DMSO solutions from the compound stock plates were added to 99 ul of cell culture media (final top concentration of compound in the assay was 30 uM and the final concentration of DMSO was 0.5%). 20 μL of compound solutions in media were added to each well of U-251 cell plates. After adding compound solutions, assay plates were incubated for 12 days at 37° C., 5% CO2. During this incubation period, cell culture media with freshly dissolved testing compounds was changed every 4 days. After removing old media from cell plates, 40 ul of media with testing compounds dissolved, which were prepared by adding 1 ul of compound DMSO serial solutions to 199 ul of cell media, were added to the assay plates with the same layout as they were initially prepared. After 8 or 12 days, cell viability was measured using the CellTiter-Glo assay kit from Promega (Madison, Wis., USA) by quantitating the ATP present in the cell cultures. 20 μL of CellTiter-Glo reagent was added to each well of the cell plates. Luminescence was read after 10 minute of incubation with the Envision multiple plate reader from PerkinElmer (Waltham, Mass., USA). The concentrations of compounds inhibiting cell viability by 50% (IC50 values) were determined using a sigmoidal dose-response model (variable slopes, four parameters) in Prism 7 (La Jolla, Calif., USA).

[3] = test system: Pancreatic Carcinoma MIA PaCa-2 cell; assay: Cell proliferation inhibition, MIA PaCa-2 (CellTiter-Glo); assay type: cell-based; conditions: Homo sapiens, MIA PaCa-2, incubated for 12 days (read after 8 or 12 days), read-out: IC50 (μM) MIA PaCa2
Source text: as §1
In order to evaluate the inhibitory ability of compounds synthesized on the proliferation of the Pancreatic Carcinoma MIA PaCa-2 cell, exponentially growing cells were seeded in the culture media of DMEM with 10% FBS, 2.5% horse serum, 1 mM of Sodium Pyruvate and 1% penicillin-streptomycin at a concentration of 2500 cells/ml in a 384-well plate with 20 ul per well and incubated overnight at 37° C., 5% CO2 incubator. Compounds were prepared as 10-point, 3-fold serial dilutions in DMSO, beginning at 6 mM. 1 μl of DMSO solutions from the compound stock plates were added to 99 ul of cell media (final top concentration of compound in the assay was 30 uM and the final concentration of DMSO was 0.5%). 20 μL of compound solutions in media were added to each well of MIA PaCa-2 cell plates. After adding compound solutions, assay plates were incubated for 12 days at 37° C., 5% CO2. During this incubation period, cell media was changed every 4 days. After removing old media from cell plates, 40 ul of media with testing compounds dissolved, which were prepared by adding 1 ul of compound DMSO serial solutions to 199 ul of cell media, were added to the assay plates with the same layout as they were initially prepared. After 8 or 12 days, cell viability was measured using the CellTiter-Glo assay kit from Promega (Madison, Wis., USA) by quantitating the ATP present in the cell cultures. 20 μL of CellTiter-Glo reagent was added to each well of the cell plates. Luminescence was read after 10 minute of incubation with the Envision multiple plate reader from PerkinElmer (Waltham, Mass., USA). The concentrations of compounds inhibiting cell viability by 50% (IC50 values) were determined using a sigmoidal dose-response model (variable slopes, four parameters) in Prism 7 (La Jolla, Calif., USA).

Chain of Human recombinant PRMT5 in complex with human recombinant MEP50 (O14744 whole entry): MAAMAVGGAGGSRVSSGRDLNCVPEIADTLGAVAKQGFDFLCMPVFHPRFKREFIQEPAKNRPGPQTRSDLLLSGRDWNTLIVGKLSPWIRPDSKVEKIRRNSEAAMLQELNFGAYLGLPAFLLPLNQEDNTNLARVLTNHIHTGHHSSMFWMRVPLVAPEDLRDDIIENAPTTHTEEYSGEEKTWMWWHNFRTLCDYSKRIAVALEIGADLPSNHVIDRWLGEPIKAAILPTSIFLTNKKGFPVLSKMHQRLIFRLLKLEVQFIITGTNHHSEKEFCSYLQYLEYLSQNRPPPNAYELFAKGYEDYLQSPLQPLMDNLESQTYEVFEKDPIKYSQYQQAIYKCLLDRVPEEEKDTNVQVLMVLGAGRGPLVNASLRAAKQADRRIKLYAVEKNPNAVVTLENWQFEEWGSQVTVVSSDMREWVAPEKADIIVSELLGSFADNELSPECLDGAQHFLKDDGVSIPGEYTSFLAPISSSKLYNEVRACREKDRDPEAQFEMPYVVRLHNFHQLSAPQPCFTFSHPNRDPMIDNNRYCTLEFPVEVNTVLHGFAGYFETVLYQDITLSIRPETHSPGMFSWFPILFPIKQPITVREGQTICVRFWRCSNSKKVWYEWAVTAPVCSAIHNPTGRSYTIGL
Chain of Human recombinant PRMT5 in complex with human recombinant MEP50 (Q9BQA1 whole entry partner): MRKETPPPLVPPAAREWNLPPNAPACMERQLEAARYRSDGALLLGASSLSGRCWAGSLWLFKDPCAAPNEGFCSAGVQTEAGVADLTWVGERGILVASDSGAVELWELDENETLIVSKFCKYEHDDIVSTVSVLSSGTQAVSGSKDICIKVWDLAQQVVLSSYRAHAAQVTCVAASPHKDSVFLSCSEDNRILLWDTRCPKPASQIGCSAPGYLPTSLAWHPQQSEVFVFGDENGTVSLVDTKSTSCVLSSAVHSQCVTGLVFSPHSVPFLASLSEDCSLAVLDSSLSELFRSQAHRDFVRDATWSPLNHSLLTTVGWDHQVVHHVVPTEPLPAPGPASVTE

| SMILES | IC50 [1] | IC50 [2] | IC50 (Glioblastoma U-251 cell) | IC50 [3] |
| --- | --- | --- | --- | --- |
| O=C1c2cc(Nc3ccnnc3)ccc2CCN1C[C@H](O)CN1CCc2ccccc2C1 [Compound 28a, (R)-2-(3-(3,4-dihydroisoquinolin-2(1H)-yl)-2-hydroxypropyl)-7-(pyridazin-4-ylamino)-3,4-dihydroisoquinolin-1(2H)-one] | 4.9 nM | 0.029 µM | 0.5 µM | 0.68 µM |
| Cn1cc(Nc2ccc3c(c2)C(=O)N(C[C@H](O)CN2CCc4ccccc4C2)CCO3)cn1 [Compound 29a, (R)-4-(3-(3,4-dihydroisoquinolin-2(1H)-yl)-2-hydroxypropyl)-7-((1-methyl-1H-pyrazol-4-yl)amino)-3,4-dihydrobenzo[f][1,4]oxazepin-5(2H)-one] | 8.4 nM | 0.073 µM | 0.14 µM | 0.4 µM |
| O=C1c2cc(Nc3ccnnc3)ccc2OCCN1C[C@H](O)CN1CCc2ccccc2C1 [Compound 30a, (R)-4-(3-(3,4-dihydroisoquinolin-2(1H)-yl)-2-hydroxypropyl)-7-(pyridazin-4-ylamino)-3,4-dihydrobenzo[f][1,4]oxazepin-5(2H)-one] | 4.6 nM | 0.018 µM | 0.18 µM | 0.23 µM |
| CC(=O)N1CCC(Nc2ccc3c(c2)C(=O)N(C[C@@H](O)CN2CCc4ccccc4C2)CCO3)CC1 [Compound 52b] | 108 nM | 0.137 µM | 5.8 µM | 0.83 µM |
